Test results published in the NIST ThermoML archive (doi:10.1021/je030127e).
± gives the expanded uncertainty stated by the source.

Tests used:
[1] = 101.3 kPa, Liquid; for viscosity: Capillary tube (Ostwald / Ubbelohde) method
[2] = xn = mol fraction of the nth substance listed; conditions: 101.3 kPa, Liquid, x1 = 1; for viscosity: Capillary tube (Ostwald / Ubbelohde) method

Row | viscosity ([1]; 293.15 K) | speed of sound ([1]; 298.15 K) | viscosity ([1]; 298.15 K) | viscosity ([1]; 303.15 K) | viscosity ([2]; 293.15 K) | viscosity ([2]; 298.15 K) | speed of sound ([2]; 298.15 K) | viscosity ([2]; 303.15 K) | SMILES
1 | 0.525 ± 0.005 mPa·s | 1251.6 ± 1.1 m/s | 0.496 ± 0.005 mPa·s | 0.467 ± 0.005 mPa·s | – | – | – | – | CCCCN [1-butanamine]
2 | 1.708 ± 0.013 mPa·s | 1344.5 ± 1.1 m/s | 1.544 ± 0.012 mPa·s | 1.404 ± 0.011 mPa·s | – | – | – | – | COCCO [2-methoxyethan-1-ol]
3 | – | – | – | – | 1.708 ± 0.013 mPa·s | 1.544 ± 0.012 mPa·s | 1344.5 ± 1.1 m/s | 1.404 ± 0.011 mPa·s | COCCO [2-methoxyethan-1-ol] + CCCCN
